Calls of active or inactive are those of the source. The calls are words filed in the database; no cut-off is given here.
Assays:
Homo sapiens = species: Homo sapiens; assay: Inhibition of Nicotinic Acetylcholine at compound concentration of 10.0 uM in the Eurofins-Panlabs radioligand binding assay (Eurofins_assay_258590); assay type: protein-complex assay; settings: Compound concentration 10.0 uM
[1] = target: Serine/threonine-protein kinase N2 (Homo sapiens) (UniProt Q16513); assay: PRK2 (h) Millipore kinase activity assay; settings: Compound concentration 1.0 uM
[2] = target: Mast/stem cell growth factor receptor Kit (Homo sapiens) (UniProt P10721); assay: cKit (h) Millipore kinase activity assay; settings: Compound concentration 1.0 uM
Sequence of Mast/stem cell growth factor receptor Kit (Homo sapiens) (P10721 whole entry): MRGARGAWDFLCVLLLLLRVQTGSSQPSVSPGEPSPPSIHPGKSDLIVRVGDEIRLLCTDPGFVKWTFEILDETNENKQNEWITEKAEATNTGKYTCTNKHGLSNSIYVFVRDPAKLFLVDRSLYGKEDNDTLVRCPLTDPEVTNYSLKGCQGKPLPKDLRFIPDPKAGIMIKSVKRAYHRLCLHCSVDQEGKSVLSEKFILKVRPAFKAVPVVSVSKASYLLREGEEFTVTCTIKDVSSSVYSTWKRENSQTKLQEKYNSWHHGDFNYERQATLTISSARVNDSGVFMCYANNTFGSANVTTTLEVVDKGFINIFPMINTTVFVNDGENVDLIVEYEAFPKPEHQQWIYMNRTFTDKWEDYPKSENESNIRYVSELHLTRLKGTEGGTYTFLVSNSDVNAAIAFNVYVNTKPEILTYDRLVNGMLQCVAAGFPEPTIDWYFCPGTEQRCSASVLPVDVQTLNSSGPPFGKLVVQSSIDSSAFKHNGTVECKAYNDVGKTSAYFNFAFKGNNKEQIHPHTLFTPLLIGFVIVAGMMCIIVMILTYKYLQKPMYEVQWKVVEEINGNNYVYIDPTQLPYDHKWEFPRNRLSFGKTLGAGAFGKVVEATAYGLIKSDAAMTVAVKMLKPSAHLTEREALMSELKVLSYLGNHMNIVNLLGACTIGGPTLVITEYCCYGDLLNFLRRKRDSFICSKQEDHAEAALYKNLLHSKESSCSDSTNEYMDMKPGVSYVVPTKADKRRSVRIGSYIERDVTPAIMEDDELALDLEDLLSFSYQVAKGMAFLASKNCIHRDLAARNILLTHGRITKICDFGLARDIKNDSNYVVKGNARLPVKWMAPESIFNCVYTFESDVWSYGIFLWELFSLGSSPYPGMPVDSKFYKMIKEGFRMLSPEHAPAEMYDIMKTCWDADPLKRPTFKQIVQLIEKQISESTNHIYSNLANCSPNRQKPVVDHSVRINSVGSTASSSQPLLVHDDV

Hs746T = assay: Cell proliferation with Hs746T cells; assay type: functional; settings: Homo sapiens
[3] = target: Serine/threonine-protein kinase Nek3 (Homo sapiens) (UniProt P51956); assay: NEK3 (h) Millipore kinase activity assay; settings: Compound concentration 1.0 uM
[4] = target: Serine/threonine-protein kinase TBK1 (Homo sapiens) (UniProt Q9UHD2); assay: TBK1 (h) Millipore kinase activity assay; settings: Compound concentration 1.0 uM
Sequence of Serine/threonine-protein kinase TBK1 (Homo sapiens) (Q9UHD2 whole entry): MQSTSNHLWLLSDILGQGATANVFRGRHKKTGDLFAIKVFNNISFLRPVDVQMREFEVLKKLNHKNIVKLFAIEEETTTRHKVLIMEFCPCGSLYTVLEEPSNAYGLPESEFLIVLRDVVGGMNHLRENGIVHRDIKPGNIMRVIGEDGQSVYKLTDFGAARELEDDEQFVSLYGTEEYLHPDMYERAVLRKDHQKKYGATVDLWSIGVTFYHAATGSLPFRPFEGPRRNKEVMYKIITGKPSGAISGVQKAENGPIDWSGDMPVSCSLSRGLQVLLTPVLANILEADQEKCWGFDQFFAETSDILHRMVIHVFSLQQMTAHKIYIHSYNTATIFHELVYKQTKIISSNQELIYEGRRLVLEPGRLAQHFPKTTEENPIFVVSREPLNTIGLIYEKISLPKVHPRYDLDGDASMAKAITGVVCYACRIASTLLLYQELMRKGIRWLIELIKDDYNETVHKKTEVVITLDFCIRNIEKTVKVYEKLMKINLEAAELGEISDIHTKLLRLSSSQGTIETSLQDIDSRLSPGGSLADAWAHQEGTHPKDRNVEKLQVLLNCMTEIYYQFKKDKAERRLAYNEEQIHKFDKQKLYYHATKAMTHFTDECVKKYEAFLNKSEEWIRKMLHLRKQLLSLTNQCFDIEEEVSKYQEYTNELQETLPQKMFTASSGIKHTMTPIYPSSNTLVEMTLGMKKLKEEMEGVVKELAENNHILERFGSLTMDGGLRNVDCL

[5] = target: SRSF protein kinase 1 (Homo sapiens) (UniProt Q96SB4); assay: SRPK1 (h) Millipore kinase activity assay; settings: Compound concentration 1.0 uM
Sequence of SRSF protein kinase 1 (Homo sapiens) (Q96SB4 whole entry): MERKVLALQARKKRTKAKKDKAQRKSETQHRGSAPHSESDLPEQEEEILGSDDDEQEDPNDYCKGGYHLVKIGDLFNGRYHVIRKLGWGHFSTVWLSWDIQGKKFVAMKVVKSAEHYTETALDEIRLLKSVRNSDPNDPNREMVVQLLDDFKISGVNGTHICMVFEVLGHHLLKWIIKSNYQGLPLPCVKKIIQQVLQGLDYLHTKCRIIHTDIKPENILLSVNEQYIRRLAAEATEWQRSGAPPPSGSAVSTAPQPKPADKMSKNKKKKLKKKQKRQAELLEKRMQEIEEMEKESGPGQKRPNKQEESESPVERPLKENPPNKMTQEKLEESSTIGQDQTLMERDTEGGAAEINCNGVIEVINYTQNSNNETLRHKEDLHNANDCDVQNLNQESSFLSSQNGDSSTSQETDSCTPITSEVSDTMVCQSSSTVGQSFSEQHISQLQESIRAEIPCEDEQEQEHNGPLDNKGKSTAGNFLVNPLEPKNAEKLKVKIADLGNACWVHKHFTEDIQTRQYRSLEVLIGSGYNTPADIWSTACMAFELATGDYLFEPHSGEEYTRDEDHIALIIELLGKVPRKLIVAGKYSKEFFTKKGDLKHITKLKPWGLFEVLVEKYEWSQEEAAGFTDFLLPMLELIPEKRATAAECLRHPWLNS

[6] = target: Fibroblast growth factor receptor 2 (Homo sapiens) (UniProt P21802); assay: FGFR2 (h) Millipore kinase activity assay; settings: Compound concentration 1.0 uM
[7] = target: Serine/threonine-protein kinase MRCK beta (Homo sapiens) (UniProt Q9Y5S2); assay: MRCKbeta (h) Millipore kinase activity assay; settings: Compound concentration 1.0 uM
[8] = target: Epidermal growth factor receptor (Homo sapiens) (UniProt P00533); assay: Inhibition of Epidermal Growth Factor (EGF) at 10 µM in the Eurofins-Panlabs radioligand binding assay (Eurofins_assay_225510); settings: Compound concentration 10.0 uM
[9] = target: Ephrin type-B receptor 3 (Homo sapiens) (UniProt P54753); assay: EphB3 (h) Millipore kinase activity assay; settings: Compound concentration 1.0 uM
[10] = target: Dual specificity mitogen-activated protein kinase kinase 4 (Mus musculus) (UniProt P47809); assay: MKK4 (m) Millipore kinase activity assay; settings: Compound concentration 1.0 uM
[11] = target: Phosphatidylinositol 3-kinase C2 domain-containing subunit gamma (Homo sapiens) (UniProt O75747); settings: Compound concentration 1000.0 nM
[12] = target: Mitogen-activated protein kinase 4 (Homo sapiens) (UniProt P31152); settings: Compound concentration 1000.0 nM
[13] = target: SRSF protein kinase 2 (Homo sapiens) (UniProt P78362); settings: Compound concentration 1000.0 nM
[14] = target: Death-associated protein kinase 3 (Homo sapiens) (UniProt O43293); settings: Compound concentration 1000.0 nM
[15] = target: Fibroblast growth factor receptor 3 (Homo sapiens) (UniProt P22607); settings: Compound concentration 1000.0 nM
Sequence of Fibroblast growth factor receptor 3 (Homo sapiens) (P22607 23-806 limits assumed): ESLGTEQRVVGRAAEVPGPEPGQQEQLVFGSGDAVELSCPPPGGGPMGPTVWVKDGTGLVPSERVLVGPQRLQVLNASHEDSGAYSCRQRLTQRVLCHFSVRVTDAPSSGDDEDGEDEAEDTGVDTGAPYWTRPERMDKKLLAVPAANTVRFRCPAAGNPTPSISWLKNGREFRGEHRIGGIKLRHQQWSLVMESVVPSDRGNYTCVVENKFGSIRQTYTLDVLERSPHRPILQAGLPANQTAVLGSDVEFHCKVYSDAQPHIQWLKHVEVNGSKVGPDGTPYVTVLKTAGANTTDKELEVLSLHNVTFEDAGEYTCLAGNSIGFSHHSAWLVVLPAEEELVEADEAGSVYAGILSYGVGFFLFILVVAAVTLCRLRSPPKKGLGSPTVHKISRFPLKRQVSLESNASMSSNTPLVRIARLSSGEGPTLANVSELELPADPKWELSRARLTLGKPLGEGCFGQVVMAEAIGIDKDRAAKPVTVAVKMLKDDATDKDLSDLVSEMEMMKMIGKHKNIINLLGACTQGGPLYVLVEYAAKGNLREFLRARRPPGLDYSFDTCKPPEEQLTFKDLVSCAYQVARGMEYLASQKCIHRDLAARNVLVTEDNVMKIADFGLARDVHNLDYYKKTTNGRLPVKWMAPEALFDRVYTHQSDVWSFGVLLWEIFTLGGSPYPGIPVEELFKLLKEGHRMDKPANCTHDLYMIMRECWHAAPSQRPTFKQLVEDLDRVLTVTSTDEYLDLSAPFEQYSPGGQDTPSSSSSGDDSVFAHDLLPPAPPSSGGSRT

[16] = target: Tyrosine-protein kinase BTK (Homo sapiens) (UniProt Q06187); settings: Compound concentration 1000.0 nM
[17] = target: Mitogen-activated protein kinase 10 (Homo sapiens) (UniProt P53779); settings: Compound concentration 1000.0 nM
[18] = tested on: Tyrosine-protein kinase ABL1 (Homo sapiens), P00519 [F317I]; settings: Compound concentration 1000.0 nM
[19] = target: Dual specificity protein kinase CLK4 (Homo sapiens) (UniProt Q9HAZ1); settings: Compound concentration 1000.0 nM
Sequence of Dual specificity protein kinase CLK4 (Homo sapiens) (Q9HAZ1 whole entry, looked up): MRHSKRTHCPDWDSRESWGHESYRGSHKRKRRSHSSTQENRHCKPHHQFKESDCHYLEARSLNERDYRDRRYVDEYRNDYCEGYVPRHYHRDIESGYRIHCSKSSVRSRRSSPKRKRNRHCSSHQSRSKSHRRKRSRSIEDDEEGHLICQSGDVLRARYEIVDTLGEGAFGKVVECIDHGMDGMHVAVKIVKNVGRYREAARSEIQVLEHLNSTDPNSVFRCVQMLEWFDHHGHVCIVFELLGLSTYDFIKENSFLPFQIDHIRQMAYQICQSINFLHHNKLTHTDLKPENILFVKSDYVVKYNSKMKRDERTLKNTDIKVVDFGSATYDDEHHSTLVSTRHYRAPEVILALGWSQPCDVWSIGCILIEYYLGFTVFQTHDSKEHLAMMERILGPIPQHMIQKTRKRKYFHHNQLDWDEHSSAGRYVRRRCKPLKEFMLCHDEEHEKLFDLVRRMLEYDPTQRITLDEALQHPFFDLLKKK

[20] = target: Serine/threonine-protein kinase ULK3 (Homo sapiens) (UniProt Q6PHR2); settings: Compound concentration 1000.0 nM
Sequence of Serine/threonine-protein kinase ULK3 (Homo sapiens) (Q6PHR2 whole entry): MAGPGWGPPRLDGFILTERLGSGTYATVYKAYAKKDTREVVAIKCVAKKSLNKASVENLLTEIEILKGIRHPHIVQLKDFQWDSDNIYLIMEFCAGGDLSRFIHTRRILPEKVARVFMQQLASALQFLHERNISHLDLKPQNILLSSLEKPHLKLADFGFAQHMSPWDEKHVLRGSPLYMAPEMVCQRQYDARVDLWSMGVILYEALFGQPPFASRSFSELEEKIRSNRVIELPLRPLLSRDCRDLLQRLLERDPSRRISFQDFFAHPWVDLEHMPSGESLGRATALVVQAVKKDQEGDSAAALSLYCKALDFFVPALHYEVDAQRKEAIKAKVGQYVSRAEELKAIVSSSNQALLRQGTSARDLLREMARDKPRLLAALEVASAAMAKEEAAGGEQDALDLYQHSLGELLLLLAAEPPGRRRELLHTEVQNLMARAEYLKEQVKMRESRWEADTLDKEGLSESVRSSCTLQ

[21] = target: Megakaryocyte-associated tyrosine-protein kinase (Homo sapiens) (UniProt P42679); settings: Compound concentration 1000.0 nM
[22] = target: Calcium/calmodulin-dependent protein kinase type II subunit delta (Homo sapiens) (UniProt Q13557); settings: Compound concentration 1000.0 nM
[23] = target: 5'-AMP-activated protein kinase catalytic subunit alpha-1 (Homo sapiens) (UniProt Q13131); settings: Compound concentration 1000.0 nM
[24] = tested on: Receptor-type tyrosine-protein kinase FLT3 (Homo sapiens), P36888 [R834Q]; settings: Compound concentration 1000.0 nM
[25] = target: Serine/threonine-protein kinase D1 (Homo sapiens) (UniProt Q15139); settings: Compound concentration 1000.0 nM
[26] = target: Eukaryotic translation initiation factor 2-alpha kinase 1 (Homo sapiens) (UniProt Q9BQI3); settings: Compound concentration 1000.0 nM
Sequence of Eukaryotic translation initiation factor 2-alpha kinase 1 (Homo sapiens) (Q9BQI3 whole entry): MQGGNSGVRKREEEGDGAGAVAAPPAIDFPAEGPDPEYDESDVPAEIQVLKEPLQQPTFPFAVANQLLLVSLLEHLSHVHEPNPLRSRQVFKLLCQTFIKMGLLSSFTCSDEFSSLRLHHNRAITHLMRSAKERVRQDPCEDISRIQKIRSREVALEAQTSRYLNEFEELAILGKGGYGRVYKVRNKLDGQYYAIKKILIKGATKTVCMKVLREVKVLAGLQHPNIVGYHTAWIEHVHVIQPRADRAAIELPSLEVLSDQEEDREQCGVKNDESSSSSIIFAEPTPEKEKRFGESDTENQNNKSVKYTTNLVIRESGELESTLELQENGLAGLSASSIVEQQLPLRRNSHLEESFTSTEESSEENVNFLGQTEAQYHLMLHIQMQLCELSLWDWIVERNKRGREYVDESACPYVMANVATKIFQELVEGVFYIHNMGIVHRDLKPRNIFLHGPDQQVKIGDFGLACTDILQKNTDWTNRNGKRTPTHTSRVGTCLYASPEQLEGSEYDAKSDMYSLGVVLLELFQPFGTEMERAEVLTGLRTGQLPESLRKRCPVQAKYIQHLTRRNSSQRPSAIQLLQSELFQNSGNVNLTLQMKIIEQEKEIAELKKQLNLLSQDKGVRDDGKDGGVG

[27] = target: Phosphatidylinositol 4-phosphate 5-kinase type-1 alpha (Homo sapiens) (UniProt Q99755); settings: Compound concentration 1000.0 nM
[28] = target: Ribosomal protein S6 kinase alpha-2 (Homo sapiens) (UniProt Q15349); settings: Compound concentration 1000.0 nM
[29] = target: Mitogen-activated protein kinase 11 (Homo sapiens) (UniProt Q15759); settings: Compound concentration 1000.0 nM
[30] = target: Ribosomal protein S6 kinase alpha-5 (Homo sapiens) (UniProt O75582); settings: Compound concentration 1000.0 nM
[31] = target: cGMP-dependent protein kinase 2 (Homo sapiens) (UniProt Q13237); settings: Compound concentration 1000.0 nM
[32] = target: Serine/threonine-protein kinase pim-2 (Homo sapiens) (UniProt Q9P1W9); settings: Compound concentration 1000.0 nM
Sequence of Serine/threonine-protein kinase pim-2 (Homo sapiens) (Q9P1W9 whole entry, looked up): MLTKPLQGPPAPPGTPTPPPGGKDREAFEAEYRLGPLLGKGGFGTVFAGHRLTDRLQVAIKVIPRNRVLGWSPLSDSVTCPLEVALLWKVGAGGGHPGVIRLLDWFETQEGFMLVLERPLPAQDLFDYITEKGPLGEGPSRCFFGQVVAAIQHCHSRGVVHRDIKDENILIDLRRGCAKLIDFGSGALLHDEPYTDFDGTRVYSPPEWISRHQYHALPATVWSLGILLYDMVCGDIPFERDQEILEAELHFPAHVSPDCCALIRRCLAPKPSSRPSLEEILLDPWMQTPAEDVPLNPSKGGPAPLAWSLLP

[33] = target: Atypical kinase COQ8A, mitochondrial (Homo sapiens) (UniProt Q8NI60); settings: Compound concentration 1000.0 nM
[34] = target: Casein kinase I isoform gamma-3 (Homo sapiens) (UniProt Q9Y6M4); settings: Compound concentration 1000.0 nM
[35] = tested on: eIF-2-alpha kinase GCN2 (Homo sapiens), Q9P2K8 [S808G]; settings: Compound concentration 1000.0 nM
[36] = tested on: Epidermal growth factor receptor (Homo sapiens), P00533 [T790M]; settings: Compound concentration 1000.0 nM
[37] = target: Serine/threonine-protein kinase DCLK1 (Homo sapiens) (UniProt O15075); settings: Compound concentration 1000.0 nM
[38] = target: Serine/threonine-protein kinase WNK4 (Homo sapiens) (UniProt Q96J92); settings: Compound concentration 1000.0 nM
[39] = target: Inhibitor of nuclear factor kappa-B kinase subunit alpha (Homo sapiens) (UniProt O15111); settings: Compound concentration 1000.0 nM
[40] = target: Muscle, skeletal receptor tyrosine-protein kinase (Homo sapiens) (UniProt O15146); settings: Compound concentration 1000.0 nM
[41] = tested on: ALK tyrosine kinase receptor (Homo sapiens), Q9UM73 [L1196M]; settings: Compound concentration 1000.0 nM
[42] = tested on: Receptor-type tyrosine-protein kinase FLT3 (Homo sapiens), P36888 [UNDEFINED MUTATION]; settings: Compound concentration 1000.0 nM
[43] = target: Ephrin type-B receptor 4 (Homo sapiens) (UniProt P54760); settings: Compound concentration 1000.0 nM

CC1=C(C#N)C(c2ccc3[nH]nc(C)c3c2)C(C#N)=C(C)N1 [BAY-474]
inhibition (Homo sapiens): -1% | inhibition [1]: 9% | inhibition [2]: -7% | IC90 (Hs746T): 56 nM (active) | inhibition [3]: -9% | inhibition [4]: -6% | inhibition [5]: 11% | inhibition [6]: 17% | inhibition [7]: -7% | inhibition [8]: 7% | inhibition [9]: -5% | inhibition [10]: 31%

CC1=C(C#N)[C@@H](c2ccc3[nH]nc(C)c3c2)C(C#N)=C(c2ccc(Cl)cc2)N1 [BAY-827]
residual activity [11]: 93.9% | residual activity [12]: 89.6% | residual activity [13]: 100% | residual activity [14]: 100% | residual activity [15]: 91.2% | residual activity [16]: 99.9% | residual activity [17]: 68.8% | residual activity [18]: 100% | residual activity [19]: 100% | residual activity [20]: 88.3% | residual activity [21]: 100% | residual activity [22]: 82.1% | residual activity [23]: 100% | residual activity [24]: 100% | residual activity [25]: 81.1% | residual activity [26]: 100% | residual activity [27]: 100% | residual activity [28]: 85.4% | residual activity [29]: 99.8% | residual activity [30]: 100% | residual activity [31]: 100% | residual activity [32]: 100% | residual activity [33]: 97.8% | residual activity [34]: 100% | residual activity [35]: 89.9% | residual activity [36]: 100% | residual activity [37]: 79.2% | residual activity [38]: 100% | residual activity [39]: 100% | residual activity [40]: 100% | residual activity [41]: 100% | residual activity [42]: 100% | residual activity [43]: 100%

Reference: ChEMBL document CHEMBL4507263, “Data for DCP probe BAY-474” (2021)
